In patent US8940313B2, “Tyrosine-based prodrugs of antiviral agents” (priority 2010, dated 2015):
pIC50: −log10 of the molar value. Values joined by “and” are separate entries in the source; they are usually repeats but may differ in a detail not shown here. Identical values can stand only once. Like-named read-outs stand apart in the source and are kept apart here.

Columns and labels:
[1] = Enzymatic stability: hydrolysis in rat intestinal homogenate, pH 6.5, 37° C., LC-MS; conditions: per diastereoisomer, st = stable; for half-life: rat, intestinal homogenate, pH 6.5, T1/2 Int. Hom.
[2] = Chemical stability: hydrolysis in 200 mM phosphate buffer, 37° C., LC-MS; conditions: per diastereoisomer, st = stable
cowpox virus = assay: microbe, parasite or virus in culture; assay type: cell-based; conditions: read-out: IC50 Cow Pox
[3] = test system: human cytomegalovirus (HCMV); assay: microbe, parasite or virus in culture; assay type: cell-based
vaccinia virus = assay: microbe, parasite or virus in culture; assay type: cell-based; conditions: read-out: IC50 Vaccinia
KB cells = assay: cells; assay type: cell-based; conditions: read-out: IC50 KB
herpes simplex 1 (HSV-1) = assay: microbe, parasite or virus in culture; assay type: cell-based
HFF cells = assay: cells; assay type: cell-based, human; conditions: read-out: IC50 HFF
[4] = Oral bioavailability / transport study in mice, plasma LC-MS; conditions: oral AUC / intravenous AUC, dose-adjusted, total HPMPA-containing species in plasma
[5] = test system: poxviruses (vaccinia and cowpox viruses); assay type: cell-based
[6] = pH 7.4, T1/2 Buffer pH 7.4, 200 mM phosphate buffer pH 7.4, 37° C.
[7] = Human alphaherpesvirus 1, read-out: IC50 HSV-1
[8] = Human betaherpesvirus 5, read-out: IC50 HCMV

Compound	T1/2 Int. Hom. [1]	pIC50 (cowpox virus; Cowpox virus, HFF)	pIC50 (vaccinia virus; Orthopoxvirus vaccinia, HFF)	pIC50 (KB cells; Homo sapiens, KB, 48 h)	pIC50 (HFF cells; Homo sapiens, HFF)	pIC50 (herpes simplex 1 (HSV-1); [7])	pIC50 [3, 8]	also measured
COC(=O)[C@@H](N)Cc1ccc(OP2(=O)CO[C@@H](Cn3cnc4c(N)ncnc43)CO2)cc1 (single isomer, unassigned) [1a (S,R)]								half-life [1]: < 28 min
COC(=O)[C@@H](N)Cc1ccc(OP2(=O)CO[C@@H](Cn3cnc4c(N)ncnc43)CO2)cc1 (single isomer, unassigned) [1a (S,S)]	<28 min							
COC(=O)[C@H](Cc1ccc(OP2(=O)CO[C@@H](Cn3cnc4c(N)ncnc43)CO2)cc1)NC(=O)[C@@H](N)C(C)C (single isomer, unassigned) [1f (S,R)]								half-life [1]: < 28 min
COC(=O)[C@H](Cc1ccc(OP2(=O)CO[C@@H](Cn3cnc4c(N)ncnc43)CO2)cc1)NC(=O)[C@@H](N)C(C)C (single isomer, unassigned) [1f (S,S)]	<28 min							half-life ([2]; pH 6.5, T1/2 Buffer pH 6.5, 200 mM phosphate buffer pH 6.5, 37° C.): 67 min
COC(=O)[C@@H](N)Cc1ccc(OP2(=O)CO[C@@H](Cn3ccc(N)nc3=O)CO2)cc1 (single isomer, unassigned) [2a (S,R)]								half-life [1]: < 30 min
COC(=O)[C@@H](N)Cc1ccc(OP2(=O)CO[C@@H](Cn3ccc(N)nc3=O)CO2)cc1 (single isomer, unassigned) [2a (S,S)]	<30 min							half-life [2, 6]: 19 min
COC(=O)[C@H](N)Cc1ccc(OP2(=O)CO[C@@H](Cn3ccc(N)nc3=O)CO2)cc1 (single isomer, unassigned) [2b (S,R)]	210 min							
COC(=O)[C@H](N)Cc1ccc(OP2(=O)CO[C@@H](Cn3ccc(N)nc3=O)CO2)cc1 (single isomer, unassigned) [2b (S,S)]	72 min							half-life [2, 6]: 21 min
CC(C)CNC(=O)[C@@H](N)Cc1ccc(OP2(=O)COC(Cn3cnc4c(N)ncnc43)CO2)cc1 (single isomer, unassigned) [(S,R)-1e]								pIC50 (cowpox virus): 5.60; pIC50 ([3]; read-out: IC50 HCMV): 6.26; T1/2 Int. Hom. ([1]; listed as 1e (S,R)): 630 min; pIC50 (vaccinia virus): 6.00; pIC50 (KB cells): < 4.00
CC(C)CNC(=O)[C@@H](N)Cc1ccc(OP2(=O)COC(Cn3cnc4c(N)ncnc43)CO2)cc1 (single isomer, unassigned) [(S,S)-1e]		5.70	5.82	< 4.00	< 4.00			pIC50 ([3]; read-out: IC50 HCMV): 5.89; T1/2 Int. Hom. ([1]; listed as 1e (S,S)): 114 min; pIC50 (herpes simplex 1 (HSV-1); read-out: IC50 HSV-1): 4.46
CC(C)OC(=O)[C@@H](N)Cc1ccc(OP2(=O)CO[C@@H](Cn3ccc(N)nc3=O)CO2)cc1 (stereo partly drawn) [2c (S,R)]	<30 min							
CC(C)OC(=O)[C@@H](N)Cc1ccc(OP2(=O)CO[C@@H](Cn3ccc(N)nc3=O)CO2)cc1 (stereo partly drawn) [2c (S,S)]	<30 min							
CC(C)(C)NC(=O)[C@H](N)Cc1ccc(OP2(=O)CO[C@@H](Cn3ccc(N)nc3=O)CO2)cc1 (stereo partly drawn) [2d (S,R)]	1732 min							
CC(C)(C)NC(=O)[C@H](N)Cc1ccc(OP2(=O)CO[C@@H](Cn3ccc(N)nc3=O)CO2)cc1 (stereo partly drawn) [2d (S,S)]	203 min							
Nc1nc2c(ncn2COCCO)c(=O)[nH]1 [ACV, Acyclovir, reference compound]						6.22		pIC50 (herpes simplex 1 (HSV-1); read-out: IC50 HSV-1): 6.15
Nc1ncnc2c1ncn2C[C@@H](CO)OCP(=O)(O)O [Compound 1, (S)-9-(3hydroxy-2-phosphonyl-methoxypropyl)adenine, reference compound]								pIC50 (cowpox virus): 5.40; pIC50 ([3]; read-out: IC50 HCMV): 6.39; pIC50 (vaccinia virus): 5.70; pIC50 (KB cells): < 4.00; total oral bioavailability [4]: 5%; pIC50 (herpes simplex 1 (HSV-1); read-out: IC50 HSV-1): 4.46
COC(=O)[C@@H](N)Cc1ccc(OP2(=O)CO[C@@H](Cn3cnc4c(N)ncnc43)CO2)cc1 (stereo partly drawn) [Compound 1a, Methyl(2S)-2-amino-3-(4-{[(5S)-5-[(6-amino-9H-purin-9-yl)methyl]-2-oxo-1,4,2λ^5-dioxaphosphinan-2-yl]oxy}phenyl)propanoate]		5.46	5.52	< 4.00	< 4.00	4.46	6.35	
CC(C)CNC(=O)[C@@H](N)Cc1ccc(OP2(=O)COC(Cn3cnc4c(N)ncnc43)CO2)cc1 (stereo partly drawn) [Compound 1e, (2S)-2-Amino-3-[4-({5-[(6-amino-9H-purin-9-yl)methyl]-2-oxo-1,4,2λ^5-dioxaphosphinan-2-yl}oxy)phenyl]-N-(2-methylpropyl)propanamide]		5.15	5.35	< 4.00	< 4.00	4.30	6.52	
COC(=O)[C@H](Cc1ccc(OP2(=O)CO[C@@H](Cn3cnc4c(N)ncnc43)CO2)cc1)NC(=O)[C@@H](N)C(C)C (stereo partly drawn) [Compound 1f, Methyl(2S)-2-[(2S)-2-amino-3-methylbutanamido]-3-[4-({(5S)-5-[(6-amino-9H-purin-9-yl)methyl]-2-oxo-1,4,2λ^5-dioxaphosphinan-2-yl}oxy)phenyl]propanoate]		5.10	5.40	< 4.00	4.00	4.46	6.52	
Nc1ccn(C[C@@H](CO)OCP(=O)(O)O)c(=O)n1 [Compound 2, (S)-HPMPC, reference compound]		4.52	4.70		4.00		6.55	pIC50 (cowpox virus): 4.82 and 4.70; pIC50 (vaccinia virus): 4.82
COC(=O)[C@@H](N)Cc1ccc(OP2(=O)CO[C@@H](Cn3ccc(N)nc3=O)CO2)cc1 (stereo partly drawn) [Compound 2a, Methyl-(2S)-2-amino-3-(4-{[(5S)-5-[(4-amino-2-oxo-2H-pyrimidin-1-yl)-methyl]-2-oxo-1,4,2λ^5-dioxaphosphinan-2-yl]oxy}phenyl)propanoate]		4.30	5.40	< 4.00	< 4.00	4.60	6.64	
COC(=O)[C@H](N)Cc1ccc(OP2(=O)CO[C@@H](Cn3ccc(N)nc3=O)CO2)cc1 (stereo partly drawn) [Compound 2b, Methyl(2R)-2-amino-3-(4-{[(5S)-5-[(4-amino-2-oxo-2H-pyrimidin-1-yl)-methyl]-2-oxo-1,4,2λ^5-dioxaphosphinan-2-yl]oxy}phenyl)propanoate]		4.46	4.60	< 4.00	< 4.00	4.46	6.70	
CC(C)OC(=O)[C@@H](N)Cc1ccc(OP2(=O)CO[C@@H](Cn3ccc(N)nc3=O)CO2)cc1 (stereo partly drawn) [Compound 2c]								pIC50 (cowpox virus): 4.40; pIC50 ([3]; read-out: IC50 HCMV): 6.92; pIC50 (vaccinia virus): 4.52; pIC50 (KB cells): < 4.00; pIC50 (herpes simplex 1 (HSV-1); read-out: IC50 HSV-1): 4.70; pIC50 (HFF cells): < 4.00
CCC(C)[C@H](N)C(=O)N[C@@H](Cc1ccc(OP2(=O)CO[C@@H](Cn3ccc(N)nc3=O)CO2)cc1)C(=O)OC (stereo partly drawn) [Compound 2f, Methyl(2S)-3-[4-({(5S)-5-[(4-amino-2-oxo-1,2-dihydropyrimidin-1-yl)methyl]-2-oxo-1,4,2λ^5-dioxaphosphinan-2-yl}oxy)phenyl]-2-[(2S)-2-amino-3-ethylbutanamido]propanoate]		4.52	4.70	< 4.00	< 4.00	4.82	> 7.00	
Nc1ncnc2c1ncn2C[C@H]1COP(=O)(O)CO1 [Compound 6, cHPMPA, reference compound]		6.22	6.00	< 4.00	4.00	4.52	5.89	
CC(C)CNC(=O)[C@@H](N)Cc1ccc(OP(=O)(O)CO[C@H](CO)Cn2cnc3c(N)ncnc32)cc1 [Compound 8, 4-[(2S)-2-amino-2-[(2-methylpropyl)carbamoyl]ethyl]phenoxy({[(2S)-1-(6-amino-9H-purin-9-yl)-3-hydroxypropan-2-yl]oxy}methyl)phosphinic acid]	st	5.52	6.30	< 4.00	< 4.00	4.35	6.54	activity against all these viruses [5]: active
Nc1nc(O)c2ncn(COC(CO)CO)c2n1 [DHPG, ganciclovir, reference compound]					< 4.00		5.62	
